Data from patent US7319098B2, “1,3-dioxoisoindole derivatives having selective antagonism of T-type calcium channel” (Korea Institute of Science and Technology, priority 2006, dated 2008).

Molecular target: T1, α1G T-type Ca2+ channels (Homo sapiens, UniProt O43497)
T1 construct: expressed in transfected cells; host or cells: HEK293 cells stably expressing α1G and Kir2.1
Test: Screening of activity against T-type calcium channel with FDSS6000 (fluorescence, KCl-induced [Ca2+]i increase)
Format: cell-based
Details: 10 μM; HEK293 cells expressing α1G and Kir2.1; NA: Not Active; read-out: Inhibitory effect (%) of T-type calcium channel, Inhibition (%)
Experimental: Meanwhile, the antagonistic activity of the novel compound of Formula (1) herein against T-type calcium channel was tested as described below. The synthesized compounds were tested for the activity against T-type calcium channel with FDSS6000. Compounds with good activity were selected and IC50 values were exactly obtained by using electrophysiological whole cell patch clamp method. HEK293 cells which stably express both α1G and Kir2.1 subunits were grown in Dulbecco's modified Eagle's medium supplemented with 10% (v/v) fetal bovine serum, penicillin (100 U/mL), streptomycin (100 μg/mL), geneticin (500 μg/mL), and +puromycin (I μg/mL) at 37° C. in a humid atmosphere of 5% CO2 and 95% air. Cells were seeded into 96-well black wall clear bottom plates at a density of 4×10^4 cells/well and were used the next day for high-throughput screening (HTS) FDSS6000 assay. For FDSS6000 assay, cells were incubated for 60 min at room temperature with 5 μM fluo3/AM and 0.001% Pluronic F-127 in a HEPES-buffered solution composed of (in mM): 115 NaCl, 5.4 KCl, 0.8 MgCl2, 1.8 CaCl2, 20 HEPES, 13.8 glucose (pH 7.4). During the fluorescence-based FDSS6000 assay, cells in HEPES-buffered solution containing 10 mM CaCl2 were pretreated with a certain concentration of test compounds and then treated with high concentration of KCl ([…]). α1G T-type Ca^2+ channels were activated by using high concentration of KCl (70 mM) and the increase in [Ca^2+]i by KCl-induced depolarization was detected. During the whole procedure, cells were washed using the BIO-TEK 96-well washer. All data were collected and analyzed using FDSS6000 and related software (Hamamatsu, Japan). The IC50 results of examining the inhibitory effects of the compounds herein selected with FDSS6000 on the calcium influx through the T-type calcium channel are provided in TABLEs 1 and 2.

T1 sequence (O43497 whole entry): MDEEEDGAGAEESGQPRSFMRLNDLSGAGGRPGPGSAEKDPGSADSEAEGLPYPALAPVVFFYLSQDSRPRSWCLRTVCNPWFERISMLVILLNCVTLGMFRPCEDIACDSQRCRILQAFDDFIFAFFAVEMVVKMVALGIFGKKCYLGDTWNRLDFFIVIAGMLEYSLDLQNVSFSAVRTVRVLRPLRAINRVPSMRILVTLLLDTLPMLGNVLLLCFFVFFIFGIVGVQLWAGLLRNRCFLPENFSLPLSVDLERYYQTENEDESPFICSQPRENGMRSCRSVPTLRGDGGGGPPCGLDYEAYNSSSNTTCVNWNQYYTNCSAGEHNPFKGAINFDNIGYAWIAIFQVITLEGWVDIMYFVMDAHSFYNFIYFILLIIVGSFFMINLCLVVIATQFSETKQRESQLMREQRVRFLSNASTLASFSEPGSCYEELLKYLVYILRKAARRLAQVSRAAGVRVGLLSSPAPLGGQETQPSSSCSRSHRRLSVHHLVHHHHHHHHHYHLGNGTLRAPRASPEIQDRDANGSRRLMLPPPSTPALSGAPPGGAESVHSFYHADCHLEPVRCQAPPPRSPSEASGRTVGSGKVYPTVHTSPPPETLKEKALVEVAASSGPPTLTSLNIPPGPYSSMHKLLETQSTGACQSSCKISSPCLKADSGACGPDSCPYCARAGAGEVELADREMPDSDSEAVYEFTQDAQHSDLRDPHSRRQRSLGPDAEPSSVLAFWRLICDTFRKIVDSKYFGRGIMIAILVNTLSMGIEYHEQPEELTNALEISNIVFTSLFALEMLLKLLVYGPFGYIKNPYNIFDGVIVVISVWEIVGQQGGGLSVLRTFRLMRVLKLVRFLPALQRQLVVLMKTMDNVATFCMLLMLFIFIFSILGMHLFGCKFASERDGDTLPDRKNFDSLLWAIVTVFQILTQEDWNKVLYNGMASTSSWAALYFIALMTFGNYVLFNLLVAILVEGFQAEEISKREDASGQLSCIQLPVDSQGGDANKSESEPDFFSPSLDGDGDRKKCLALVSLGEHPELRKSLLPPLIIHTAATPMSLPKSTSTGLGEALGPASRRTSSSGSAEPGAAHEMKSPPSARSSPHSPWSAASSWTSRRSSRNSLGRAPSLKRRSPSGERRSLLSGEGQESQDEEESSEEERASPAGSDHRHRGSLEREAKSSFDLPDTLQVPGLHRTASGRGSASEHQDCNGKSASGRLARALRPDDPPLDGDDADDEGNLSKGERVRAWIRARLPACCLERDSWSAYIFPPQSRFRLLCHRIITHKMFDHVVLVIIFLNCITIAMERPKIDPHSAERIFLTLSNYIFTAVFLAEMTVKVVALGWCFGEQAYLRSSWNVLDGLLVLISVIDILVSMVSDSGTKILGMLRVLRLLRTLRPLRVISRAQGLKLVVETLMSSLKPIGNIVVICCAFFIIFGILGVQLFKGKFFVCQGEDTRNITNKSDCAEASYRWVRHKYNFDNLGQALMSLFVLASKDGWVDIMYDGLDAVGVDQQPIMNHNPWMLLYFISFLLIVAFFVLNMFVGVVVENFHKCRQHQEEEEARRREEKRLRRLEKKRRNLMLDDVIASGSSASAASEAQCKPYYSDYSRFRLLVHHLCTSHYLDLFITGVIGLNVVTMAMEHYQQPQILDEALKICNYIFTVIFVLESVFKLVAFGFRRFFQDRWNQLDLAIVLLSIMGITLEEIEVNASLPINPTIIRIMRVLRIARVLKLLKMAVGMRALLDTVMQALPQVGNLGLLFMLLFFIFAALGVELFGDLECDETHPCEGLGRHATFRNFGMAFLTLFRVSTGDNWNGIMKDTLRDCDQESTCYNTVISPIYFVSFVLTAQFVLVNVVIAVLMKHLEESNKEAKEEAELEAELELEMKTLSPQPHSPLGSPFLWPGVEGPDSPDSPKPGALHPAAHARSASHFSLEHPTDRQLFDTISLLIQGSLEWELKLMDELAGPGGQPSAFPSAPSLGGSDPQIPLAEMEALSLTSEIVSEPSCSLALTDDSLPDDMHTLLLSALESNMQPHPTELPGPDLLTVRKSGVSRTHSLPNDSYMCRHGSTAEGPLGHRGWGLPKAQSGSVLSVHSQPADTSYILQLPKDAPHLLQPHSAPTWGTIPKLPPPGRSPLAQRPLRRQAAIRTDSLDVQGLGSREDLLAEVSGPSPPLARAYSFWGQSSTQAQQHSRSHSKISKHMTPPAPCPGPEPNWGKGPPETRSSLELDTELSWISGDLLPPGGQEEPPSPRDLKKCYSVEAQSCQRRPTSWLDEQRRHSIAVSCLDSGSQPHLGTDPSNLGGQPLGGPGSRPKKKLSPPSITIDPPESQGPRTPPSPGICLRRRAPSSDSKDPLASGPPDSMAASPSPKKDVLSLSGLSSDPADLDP

Going from `Cc1cccc(N2C(=O)c3ccc(C(=O)NCCCN4CCCCC4C)cc3C2=O)c1` (stereo not drawn) [Compound 34, 1-{3-[(1,3-dioxo-2-m-tolyl-2,3-dihydro-1H-isoindol-5-carbonyl)-amino]-propyl}-2-methyl-piperidinium chloride] to `Cc1ccc(N2C(=O)c3ccc(C(=O)NCCCN4CCCCC4C)cc3C2=O)cc1` (stereo not drawn) [Compound 40, 1-{3-[(1,3-dioxo-2-p-tolyl-2,3-dihydro-1H-isoindol-5-carbonyl)-amino]-propyl}-2-methyl-piperidinium chloride], the inhibition at 10 µM rises from 10% to 11.7%.

Going from `Cc1cccc(N2C(=O)c3ccc(C(=O)NCCN4CCCC4)cc3C2=O)c1` [Compound 35, 1-{2-[(1,3-dioxo-2-m-tolyl-2,3-dihydro-1H-isoindol-5-carbonyl)-amino]-ethyl}-pyrrolidinium chloride] to `Cc1cccc(N2C(=O)c3ccc(C(=O)NCCCN4CCCC4)cc3C2=O)c1` [Compound 36, 1-{3-[(1,3-dioxo-2-m-tolyl-2,3-dihydro-1H-isoindol-5-carbonyl)-amino]-propyl}-pyrrolidinium chloride], the inhibition at 10 µM rises from 4.7% to 5.3%.

Going from `Cc1cccc(N2C(=O)c3ccc(C(=O)NCCN4CCOCC4)cc3C2=O)c1` [Compound 37, 4-{2-[(1,3-dioxo-2-m-tolyl-2,3-dihydro-1H-isoindol-5-carbonyl)-amino]-ethyl}-4-morpholinium chloride] to `Cc1cccc(N2C(=O)c3ccc(C(=O)NCCCN4CCOCC4)cc3C2=O)c1` [Compound 38, 4-{3-[(1,3-dioxo-2-m-tolyl-2,3-dihydro-1H-isoindol-5-carbonyl)-amino]-propyl}-4-morpholinium chloride], the inhibition at 10 µM rises from 1.3% to 4.2%.

Going from `Cc1ccc(N2C(=O)c3ccc(C(=O)NCCN4CCCC4)cc3C2=O)cc1` [Compound 41, 1-{2-[(1,3-dioxo-2-p-tolyl-2,3-dihydro-1H-isoindol-5-carbonyl)-amino]-ethyl}-pyrrolidinium chloride] to `CN1CCN(CCCNC(=O)c2ccc3c(c2)C(=O)N(Cc2cccc(F)c2)C3=O)CC1` [Compound 67, 1-(3-{[2-(3-fluoro-benzyl)-1,3-dioxo-2,3-dihydro-1H-isoindol-5-carbonyl]-amino}-propyl)-4-methyl-1-piperazinium chloride], the inhibition at 10 µM rises from 2% to 2.2%.

Same assay, conditions: 100 μM; HEK293 cells expressing α1G and Kir2.1; read-out: Inhibitory effect (%) of T-type calcium channel, Inhibition (%)

First: Cc1ccccc1N1C(=O)c2ccc(C(=O)NCCN3CCOCC3)cc2C1=O [Compound 32, 4-{2-[(1,3-dioxo-2-o-tolyl-2,3-dihydro-1H-isoindol-5-carbonyl)-amino]-ethyl}-4-morpholinium chloride]
Second: O=C(NCCN1CCOCC1)c1ccc2c(c1)C(=O)N(Cc1ccccc1F)C2=O [Compound 59, 4-(2-{[2-(2-fluoro-benzyl)-1,3-dioxo-2,3-dihydro-1H-isoindol-5-carbonyl]-amino}-ethyl)-4-morpholinium chloride]
The inhibition at 100 µM of the first is lower: 22.3% for the first, 30.2% for the second.

Going from `Cc1cccc(N2C(=O)c3ccc(C(=O)NCCN4CCCCC4)cc3C2=O)c1` [Compound 33, 1-{2-[(1,3-dioxo-2-m-tolyl-2,3-dihydro-1H-isoindol-5-carbonyl)-amino]-ethyl}-piperidinium chloride] to `COc1cccc(N2C(=O)c3ccc(C(=O)NCCN4CCCCC4)cc3C2=O)c1` [Compound 46, 1-(2-{[2-(3-methoxy-phenyl)-1,3-dioxo-2,3-dihydro-1H-isoindol-5-carbonyl]-amino}-ethyl)-piperidinium chloride], the inhibition at 100 µM falls from 64.5% to 31.4%.

First: Cc1ccc(N2C(=O)c3ccc(C(=O)NCCN4CCCCC4)cc3C2=O)cc1 [Compound 39, 1-{2-[(1,3-dioxo-2-p-tolyl-2,3-dihydro-1H-isoindol-5-carbonyl)-amino]-ethyl}-piperidinium chloride]
Second: COc1ccc(N2C(=O)c3ccc(C(=O)NCCN4CCCCC4)cc3C2=O)cc1 [Compound 48, 1-(2-{[2-(4-methoxy-phenyl)-1,3-dioxo-2,3-dihydro-1H-isoindol-5-carbonyl]-amino}-ethyl)-piperidinium chloride]
The inhibition at 100 µM of the first is higher: 39.4% for the first, 31.4% for the second.

Going from `O=C(NCCN1CCCCC1)c1ccc2c(c1)C(=O)N(Cc1ccccc1)C2=O` [Compound 49, 1-{2-[(2-benzyl-1,3-dioxo-2,3-dihydro-1H-isoindol-5-carbonyl)-amino]-ethyl}-piperidinium chloride] to `O=C(NCCN1CCCC1)c1ccc2c(c1)C(=O)N(Cc1ccccc1)C2=O` [Compound 51, 1-{2-[(2-benzyl-1,3-dioxo-2,3-dihydro-1H-isoindol-5-carbonyl)-amino]-ethyl}-pyrrolidinium chloride], the inhibition at 100 µM falls from 72.4% to 48.4%.

Compared with `CC1CCCCN1CCCNC(=O)c1ccc2c(c1)C(=O)N(Cc1ccccc1)C2=O` (stereo not drawn) [Compound 50, 1-{3-[(2-benzyl-1,3-dioxo-2,3-dihydro-1H-isoindol-5-carbonyl)-amino]-propyl}-2-methyl-piperidinium chloride], `CC1CCCCN1CCCNC(=O)c1ccc2c(c1)C(=O)N(Cc1ccccc1F)C2=O` (stereo not drawn) [Compound 56, 1-(3-{[2-(2-fluoro-benzyl)-1,3-dioxo-2,3-dihydro-1H-isoindol-5-carbonyl]-amino}-propyl)-2-methyl-piperidinium chloride] is higher in inhibition at 100 µM: 69.6% for the first, 78.8% for the second.

Going from `O=C(NCCCN1CCCC1)c1ccc2c(c1)C(=O)N(Cc1ccccc1)C2=O` [Compound 52, 1-{3-[(2-benzyl-1,3-dioxo-2,3-dihydro-1H-isoindol-5-carbonyl)-amino]-propyl}-pyrrolidinium chloride] to `O=C(NCCCN1CCOCC1)c1ccc2c(c1)C(=O)N(Cc1ccccc1)C2=O` [Compound 54, 4-{3-[(2-benzyl-1,3-dioxo-2,3-dihydro-1H-isoindol-5-carbonyl)-amino]-propyl}-4-morpholinium chloride], the inhibition at 100 µM falls from 45.8% to 38.5%.

Compared with `O=C(NCCN1CCOCC1)c1ccc2c(c1)C(=O)N(Cc1ccccc1)C2=O` [Compound 53, 4-{2-[(2-benzyl-1,3-dioxo-2,3-dihydro-1H-isoindol-5-carbonyl)-amino]-ethyl}-4-morpholinium chloride], `O=C(NCCN1CCOCC1)c1ccc2c(c1)C(=O)N(Cc1cccc(F)c1)C2=O` [Compound 65, 4-(2-{[2-(3-fluoro-benzyl)-1,3-dioxo-2,3-dihydro-1H-isoindol-5-carbonyl]-amino}-ethyl)-4-morpholinium chloride] is higher in inhibition at 100 µM: 42.5% for the first, 59.8% for the second.

First: O=C(NCCN1CCCCC1)c1ccc2c(c1)C(=O)N(Cc1ccccc1F)C2=O [Compound 55, 1-(2-{[2-(2-fluoro-benzyl)-1,3-dioxo-2,3-dihydro-1H-isoindol-5-carbonyl]-amino}-ethyl)-piperidinium chloride]
Second: O=C(NCCN1CCCC1)c1ccc2c(c1)C(=O)N(Cc1ccccc1F)C2=O [Compound 57, 1-(2-{[2-(2-fluoro-benzyl)-1,3-dioxo-2,3-dihydro-1H isoindol-5-carbonyl]-amino}-ethyl)-pyrrolidinium chloride]
The inhibition at 100 µM of the first is higher: 79.9% for the first, 65.5% for the second.

Compared with `O=C(NCCCN1CCCC1)c1ccc2c(c1)C(=O)N(Cc1ccccc1F)C2=O` [Compound 58, 1-(3-{[2-(2-fluoro-benzyl)-1,3-dioxo-2,3-dihydro-1H-isoindol-5-carbonyl]-amino}-propyl)-pyrrolidinium chloride], `O=C(NCCCN1CCOCC1)c1ccc2c(c1)C(=O)N(Cc1ccccc1F)C2=O` [Compound 60, 4-(3-{[2-(2-fluoro-benzyl)-1,3-dioxo-2,3-dihydro-1H-isoindol-5-carbonyl]-amino}-propyl)-4-morpholinium chloride] is lower in inhibition at 100 µM: 70.6% for the first, 60.8% for the second.

First: CC1CCCCN1CCCNC(=O)c1ccc2c(c1)C(=O)N(Cc1cccc(F)c1)C2=O (stereo not drawn) [Compound 62, 1-(3-{[2-(3-fluoro-benzyl)-1,3-dioxo-2,3-dihydro-1H-isoindol-5-carbonyl]-amino}-propyl)-2-methyl-piperidinium chloride]
Second: O=C(NCCCN1CCCC1)c1ccc2c(c1)C(=O)N(Cc1cccc(F)c1)C2=O [Compound 64, 1-(3-{[2-(3-fluoro-benzyl)-1,3-dioxo-2,3-dihydro-1H-isoindol-5-carbonyl]-amino}-propyl)-pyrrolidinium chloride]
The inhibition at 100 µM of the first is higher: 83.5% for the first, 65.9% for the second.

Compared with `O=C(NCCN1CCCC1)c1ccc2c(c1)C(=O)N(Cc1cccc(F)c1)C2=O` [Compound 63, 1-(2-{[2-(3-fluoro-benzyl)-1,3-dioxo-2,3-dihydro-1H-isoindol-5-carbonyl]-amino}-ethyl)-pyrrolidinium chloride], `O=C(NCCCN1CCOCC1)c1ccc2c(c1)C(=O)N(Cc1cccc(F)c1)C2=O` [Compound 66, 4-(3-{[2-(3-fluoro-benzyl)-1,3-dioxo-2,3-dihydro-1H-isoindol-5-carbonyl]-amino}-propyl)-4-morpholinium chloride] is lower in inhibition at 100 µM: 73.4% for the first, 59.8% for the second.
